Structures are written as SMILES.

`CSC(Oc1cc2cc(Br)cnc2cc1Cl)C(=O)NC(C)(C)C` (stereo not drawn) [12 (2), 2-(3-Bromo-7-chloro-quinolin-6-yloxy)-N-tert-butyl-2-methylsulfanyl-acetamide] yielded a melting point of 172 to 174 °C.
The compound `CSC(Oc1cc2cc(Br)cnc2cc1F)C(=O)NC(C)(C)C` (stereo not drawn) [12 (6), 2-(3-Bromo-7-fluoro-quinolin-6-yloxy)-N-tert-butyl-2-methylsulfanyl-acetamide] yielded a melting point of 144 to 145 °C.
In the case of `CSC(Oc1cc2cc(I)cnc2cc1F)C(=O)NC(C)(C)C` (stereo not drawn) [12 (7), 2-(3-iodo-7-fluoro-quinolin-6-yloxy)-N-tert-butyl-2-methylsulfanyl-acetamide] it was 165 to 166 °C.
In the case of `CSC(Oc1cc2cc(Br)cnc2cc1C)C(=O)NC(C)(C)C` (stereo not drawn) [12 (13), 2-(3-Bromo-7-methyl-quinolin-6-yloxy)-N-tert-butyl-2-methylsulfanyl-acetamide], the melting point fell in the range of 132 to 134 °C.
`CSC(Oc1cc2cc(-c3ccsc3)cnc2cc1F)C(=O)NC(C)(C)C` (stereo not drawn) [12 (30), N-tert-butyl-2-(7-fluoro-3-thiophen-3-yl-quinolin-6-yloxy)-2-methylsulfanyl-acetamide] yielded a melting point of 170 to 173 °C.
In the case of `COCC#CC(C)(C)NC(=O)C(C)(S)Oc1cc2cc(-c3ccsc3)cnc2cc1F` (stereo not drawn) [251 (30), 2-(7-Fluoro-3-thiophen-3-yl-quinolin-6-yloxy)-N-(4-methoxy-1,1-dimethyl-but-2-ynyl)-2-methyl-sulfanyl-acetamide] it was 132 to 134 °C.

As usually defined, the melting point is the temperature, or range, at which the solid turns liquid.

(Values after patent US20100056570A1, “FUNGICIDES” (Syngenta Crop Protection, Inc., priority 2006, published 2010).)
